Source: US9884818B2, “Sulphamoylpyrrolamide derivatives and the use thereof as medicaments for the treatment of hepatitis B” (Janssen Sciences Ireland UC, priority 2013, dated 2018)
pEC50: −log10 of the molar value.

Assays:
[1] = system: HBV; assay: Anti-HBV activity, HepG2.2.15 stable transfected cell line, HBV DNA from secreted virions by realtime PCR; type: cell-based; conditions: Hepatitis B virus, HepG2.2.15, 144 h, HepG2.2.15 cells, 6 days of treatment, HBV DNA from secreted virions; read-out: HepG2 2.15 EC50
[2] = Cytotoxicity in HepG2 cells, Resazurin viability assay; conditions: human, HepG2 cells, HepG2 4 days CC50 (μM), incubated for 4 days, Resazurin assay
[3] = system: HBV; assay: Anti-HBV activity, HepG2.117 inducibly HBV producing cell line (Tet-off), intracellular HBV DNA by realtime PCR; type: cell-based; conditions: Hepatitis B virus, HepG2.117, 72 h, HepG2.117 cells, 3 days of treatment, intracellular HBV DNA; read-out: HepG2 117 EC50

Compound	pEC50 [1]	CC50 at 4 days [2] [µM]	pEC50 [3]
Cn1cc(S(=O)(=O)NC2(C)COC2)c(F)c1C(=O)Nc1ccc(F)c(C(F)F)c1 [Compound 107, N-[3-(Difluoromethyl)-4-fluorophenyl]-3-fluoro-1-methyl-4-[(3-methyloxetan-3-yl)sulfamoyl]-1H-pyrrole-2-carboxamide]	8.00	> 25	8.00
Cn1cc(S(=O)(=O)NC(C)(C)C(F)(F)F)cc1C(=O)Nc1ccc(F)c(F)c1 [Compound 95, N-(3,4-Difluorophenyl)-1-methyl-4-[(2,2,2-trifluoro-1,1-dimethylethyl)-sulfamoyl]-1H-pyrrole-2-carboxamide]	6.89	> 25	7.22
CC(C)NS(=O)(=O)c1cn(C)c(C(=O)Nc2ccc(F)c(C#N)c2)c1C#N [Compound 216, 3-Cyano-N-(3-cyano-4-fluorophenyl)-1-methyl-4-[(1-methylethyl)sulfamoyl]-1H-pyrrole-2-carboxamide]	6.74	> 25	6.34
CC[C@H](NS(=O)(=O)c1cc(C(=O)Nc2ccc(F)c(C#N)c2)n(C)c1)C(F)(F)F [Compound 239, N-(3-Cyano-4-fluorophenyl)-1-methyl-4-{[(1S)-1-(trifluoromethyl)-propyl]sulfamoyl}-1H-pyrrole-2-carboxamide]	7.70	> 25	8.00
Cn1cc(S(=O)(=O)NC2(C)COC2)cc1C(=O)Nc1ccc(F)c(OC(F)(F)F)c1 [Compound 86, N-[4-Fluoro-3-(trifluoromethoxy)phenyl]-1-methyl-4-[(3-methyloxetan-3-yl)sulfamoyl]-1H-pyrrole-2-carboxamide]	6.43	> 25	6.46
Cc1c(S(=O)(=O)N[C@@H](C)C(F)(F)F)cn(C)c1C(=O)Nc1ccc(F)c(Cl)c1 [Compound 147, N-(3-Chloro-4-fluorophenyl)-1,3-dimethyl-4-{[(1S)-2,2,2-trifluoro-1-methylethyl]sulfamoyl}-1H-pyrrole-2-carboxamide]	7.10	> 25	7.40
CCC(C)(NS(=O)(=O)c1cc(C(=O)Nc2ccc(F)c(C#N)c2)n(C)c1)C(F)(F)F (stereo not drawn) [Compound 246, N-(3-cyano-4-fluoro-phenyl)-1-methyl-4-{[1-methyl-1-(trifluoro-methyl)propyl]sulfamoyl}-1H-pyrrole-2-carboxamide]	7.30	> 25	7.22
CC[C@@H](C)NS(=O)(=O)c1cc(C(=O)Nc2ccc(F)c(C#N)c2)n(C)c1 [Compound 294, N-(3-cyano-4-fluoro-phenyl)-1-methyl-4-[[(1R)-1-methylpropyl]-sulfamoyl]pyrrole-2-carboxamide]	7.40	> 25	7.00
Cc1c(S(=O)(=O)NC2(C)COC2)cn(C)c1C(=O)Nc1ccc(F)c(F)c1 [Compound 148, N-(3,4-Difluorophenyl)-1,3-dimethyl-4-[(3-methyloxetan-3-yl)sulfamoyl]-1H-pyrrole-2-carboxamide]	6.96	> 25	7.15
Cn1cc(S(=O)(=O)NC2(C)COC2)c(Cl)c1C(=O)Nc1ccc(F)c(C#N)c1 [Compound 306, 3-chloro-N-(3-cyano-4-fluoro-phenyl)-1-methyl-4-[(3-methyloxetan-3-yl)sulfamoyl]-pyrrole-2-carboxamide]	7.52	> 25	7.22
Cc1c(S(=O)(=O)N[C@H](C)C(F)(F)F)cn(C)c1C(=O)Nc1ccc(F)c(F)c1 [Compound 144, N-(3,4-Difluorophenyl)-1,3-dimethyl-4-{[(1R)-2,2,2-trifluoro-1-methylethyl]sulfamoyl}-1H-pyrrole-2-carboxamide]	7.30	> 25	7.15
C[C@@H](NS(=O)(=O)c1cc(C(=O)Nc2c(F)ccc(Cl)c2F)n(C)c1)C(F)(F)F [Compound 204, N-(3-Chloro-2,6-difluorophenyl)-1-methyl-4-{[(1R)-2,2,2-trifluoro-1-methylethyl]sulfamoyl}-1H-pyrrole-2-carboxamide]	6.19	> 25	6.21
CC(C)NS(=O)(=O)c1cn(C)c(C(=O)Nc2ccc(F)c(F)c2)c1F [Compound 232, N-(3,4-Difluorophenyl)-3-fluoro-1-methyl-4-[(1-methylethyl)sulfamoyl]-1H-pyrrole-2-carboxamide]	7.70	> 25	7.70
C[C@H](NS(=O)(=O)c1cn(C)c(C(=O)Nc2ccc(F)c(C#N)c2)c1Cl)C(F)(F)F [Compound 225, 3-Chloro-N-(3-cyano-4-fluorophenyl)-1-methyl-4-{[(1S)-2,2,2-trifluoro-1-methylethyl]sulfamoyl}-1H-pyrrole-2-carboxamide]	7.15	> 25	7.15
C[C@H](NS(=O)(=O)c1cn(C)c(C(=O)Nc2ccc(F)c(C#N)c2)c1F)C(F)(F)F [Compound 188, N-(3-Cyano-4-fluorophenyl)-3-fluoro-1-methyl-4-{[(1S)-2,2,2-trifluoro-1-methylethyl]sulfamoyl}-1H-pyrrole-2-carboxamide]	7.40	> 25	7.52
Cn1cc(S(=O)(=O)NC(C)(C)C)cc1C(=O)Nc1cccc(C#N)c1 [Compound 191, 4-(tert-Butylsulfamoyl)-N-(3-cyanophenyl)-1-methyl-1H-pyrrole-2-carboxamide]	6.74	> 25	6.80
CC(C)NS(=O)(=O)c1cn(C)c(C(=O)Nc2ccc(F)c(Cl)c2)c1F [Compound 235, N-(3-Chloro-4-fluorophenyl)-3-fluoro-1-methyl-4-[(1-methylethyl)sulfamoyl]-1H-pyrrole-2-carboxamide]	8.00	> 25	8.00
CCC(CC)(NS(=O)(=O)c1cc(C(=O)Nc2ccc(F)c(C#N)c2)n(C)c1)C(F)(F)F [Compound 248, N-(3-cyano-4-fluoro-phenyl)-4-{[1-ethyl-1-(trifluoromethyl)propyl]sulfamoyl}-1-methyl-1H-pyrrole-2-carboxamide]	7.52	> 25	7.15
Cn1cc(S(=O)(=O)NC2(C)COC2)cc1C(=O)Nc1cc(Cl)cc(C#N)c1 [Compound 87, N-(3-Chloro-5-cyanophenyl)-1-methyl-4-[(3-methyloxetan-3-yl)sulfamoyl]-1H-pyrrole-2-carboxamide]	6.02	> 25	< 6.00
C[C@H](NS(=O)(=O)c1cc(C(=O)Nc2cccc(C#N)c2F)n(C)c1)C(F)(F)F [Compound 198, N-(3-Cyano-2-fluorophenyl)-1-methyl-4-{[(1S)-2,2,2-trifluoro-1-methylethyl]sulfamoyl}-1H-pyrrole-2-carboxamide]	6.82	> 25	7.10
Cc1c(S(=O)(=O)N[C@@H](C)C(F)(F)F)cn(C)c1C(=O)Nc1ccc(F)c(Cl)c1F [Compound 209, N-(3-Chloro-2,4-difluorophenyl)-1,3-dimethyl-4-{[(1S)-2,2,2-trifluoro-1-methylethyl]sulfamoyl}-1H-pyrrole-2-carboxamide]	7.05	> 25	7.05
Cn1cc(S(=O)(=O)NCC(F)(F)F)cc1C(=O)Nc1ccc(F)c(Br)c1 [Compound 135, N-(3-Bromo-4-fluorophenyl)-1-methyl-4-[(2,2,2-trifluoroethyl)sulfamoyl]-1H-pyrrole-2-carboxamide]	7.70	> 25	6.59
CC(CC(F)(F)F)NS(=O)(=O)c1cc(C(=O)Nc2ccc(F)c(C#N)c2)n(C)c1 (stereo not drawn) [Compound 238, N-(3-Cyano-4-fluorophenyl)-1-methyl-4-[(3,3,3-trifluoro-1-methyl-propyl)sulfamoyl]-1H-pyrrole-2-carboxamide]	7.00	> 25	6.96
CC(NS(=O)(=O)c1cc(C(=O)Nc2ccc(F)c(C#N)c2)n(C)c1)C(F)F (single isomer, unassigned) [Compound 200a, N-(3-Cyano-4-fluorophenyl)-4-{[2,2-difluoro-1-methylethyl]sulfamoyl}-1-methyl-1H-pyrrole-2-carboxamide]	7.00	> 25	7.30
Cc1cc(NC(=O)c2cc(S(=O)(=O)NC(C)(C)C(N)=O)cn2C)ccc1F [Compound 64, 4-[(2-amino-1,1-dimethyl-2-oxo-ethyl)sulfamoyl]-N-(4-fluoro-3-methyl-phenyl)-1-methyl-pyrrole-2-carboxamide]	6.89	> 25	7.30
Cn1cc(S(=O)(=O)NC2(C)COC2)c(F)c1C(=O)Nc1ccc(F)c(C#N)c1 [Compound 113, N-(3-cyano-4-fluoro-phenyl)-3-fluoro-1-methyl-4-[(3-methyloxetan-3-yl)sulfamoyl]pyrrole-2-carboxamide]	7.52	> 25	7.70
C[C@H](NS(=O)(=O)c1cc(C(=O)Nc2ccc(F)c(Br)c2F)n(C)c1)C(F)(F)F [Compound 155, N-(3-Bromo-2,4-difluorophenyl)-1-methyl-4-{[(1S)-2,2,2-trifluoro-1-methylethyl]sulfamoyl}-1H-pyrrole-2-carboxamide]	7.52	> 25	7.30
Cn1cc(S(=O)(=O)NC2(C(F)(F)F)CC2)cc1C(=O)Nc1ccc(F)c(Cl)c1F [Compound 253, N-(3-chloro-2,4-difluoro-phenyl)-1-methyl-4-{[1-(trifluoromethyl)-cyclopropyl]sulfamoyl}-1H-pyrrole-2-carboxamide]	8.00	> 25	8.00
